# Measurements: patent US20210198277A1, “AMINE-SUBSTITUTED ARYL OR HETEROARYL COMPOUNDS” (Epizyme, Inc., priority 2016, published 2021)
# Like-named read-outs stand apart in the source and are kept apart here.
# Target: T1, EHMT2 (Homo sapiens, UniProt Q96KQ7)
# T1 construct: host or cells: MDA-MB-231
# T1 sequence (Q96KQ7 1-1210): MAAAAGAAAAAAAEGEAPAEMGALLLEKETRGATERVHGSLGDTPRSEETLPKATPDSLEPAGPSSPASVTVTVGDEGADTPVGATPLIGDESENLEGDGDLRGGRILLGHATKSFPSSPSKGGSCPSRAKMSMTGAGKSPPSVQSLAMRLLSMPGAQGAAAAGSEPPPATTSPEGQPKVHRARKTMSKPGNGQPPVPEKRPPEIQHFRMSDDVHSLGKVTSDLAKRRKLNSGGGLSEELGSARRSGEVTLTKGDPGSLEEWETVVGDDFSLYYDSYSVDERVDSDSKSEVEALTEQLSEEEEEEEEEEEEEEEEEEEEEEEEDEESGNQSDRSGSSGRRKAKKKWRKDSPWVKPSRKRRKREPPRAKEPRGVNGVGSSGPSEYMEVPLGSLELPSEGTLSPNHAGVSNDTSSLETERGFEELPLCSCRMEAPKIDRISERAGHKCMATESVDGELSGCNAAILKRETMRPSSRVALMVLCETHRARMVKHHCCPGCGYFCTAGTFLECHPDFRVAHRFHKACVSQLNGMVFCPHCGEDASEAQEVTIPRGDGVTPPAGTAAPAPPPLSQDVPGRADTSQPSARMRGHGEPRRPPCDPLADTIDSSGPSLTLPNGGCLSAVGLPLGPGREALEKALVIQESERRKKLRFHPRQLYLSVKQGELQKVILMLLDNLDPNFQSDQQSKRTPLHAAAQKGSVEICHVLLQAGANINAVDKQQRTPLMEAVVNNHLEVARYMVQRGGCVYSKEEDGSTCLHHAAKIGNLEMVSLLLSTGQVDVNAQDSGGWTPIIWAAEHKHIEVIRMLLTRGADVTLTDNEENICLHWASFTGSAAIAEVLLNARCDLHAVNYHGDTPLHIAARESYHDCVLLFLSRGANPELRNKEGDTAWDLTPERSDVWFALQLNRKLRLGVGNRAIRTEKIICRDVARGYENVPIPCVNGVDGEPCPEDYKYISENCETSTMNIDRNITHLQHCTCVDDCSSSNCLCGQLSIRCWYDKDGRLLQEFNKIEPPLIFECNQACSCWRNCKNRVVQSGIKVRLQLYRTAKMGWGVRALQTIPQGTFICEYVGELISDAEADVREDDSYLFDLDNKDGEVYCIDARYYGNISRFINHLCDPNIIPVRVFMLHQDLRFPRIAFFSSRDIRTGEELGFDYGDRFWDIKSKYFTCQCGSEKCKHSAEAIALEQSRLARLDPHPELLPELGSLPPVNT
# Assay: MDA-MB-231 H3K9me2 in-cell Western assay (EHMT2 ICW)
# Type: cell-based
# Summary of the method: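 Cells seeded at 3,000/well onto pre-dispensed compound; 30 min RT, then 48 h 37 °C/5% CO2. PFA fix, block, α-H3K9me2 1:800 o/n 4 °C, 800CW secondary + DRAQ5. Odyssey scan 700/800 nm; ratio → % inhibition → 4-parameter IC50.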
# [1] = H3K9me2 in-cell Western, MDA-MB-231 cells, read-out: EHMT2 ICW (IC50 μM)
# [2] = Table VII, read-out: EHMT2 ICW IC50
Structure (SMILES),IC50 [1] [µM],IC50 [2] [µM]
"CNc1nc(C2CCCC2)c2cc(OC)c(OCCCN3CCCC3)cc2n1 [Compound 518, 4-cyclopentyl-6-methoxy-N-methyl-7-(3-(pyrrolidin-1-yl)propoxy)quinazolin-2-amine]",1 to 10,–
CNc1nc(C2CCN(C(C)=O)CC2)c2cc(OC)c(OCCCN3CCCC3)cc2n1 [Compound 519],> 10,–
CNc1nc(C2CCNCC2)c2cc(OC)c(OCCCN3CCCC3)cc2n1 [Compound 520],1 to 10,–
CNc1nc(C2CCOCC2)c2cc(OC)c(OCCCN3CCCC3)cc2n1 [Compound 521],1 to 10,–
CNc1nc(C2=CCOCC2)c2cc(OC)c(OCCCN3CCCC3)cc2n1 [Compound 522],1 to 10,–
"CNc1nc(C2CCCCC2)c2cc(OC)c(OCCCN3CCCC3)cc2n1 [Compound 523, 4-cyclohexyl-6-methoxy-N-methyl-7-(3-(pyrrolidin-1-yl)propoxy)quinazolin-2-amine]",1 to 10,–
"CNc1cc(C2CCOCC2)c2cc(OC)c(OCCCN3CCCC3)cc2n1 [Compound 524, 6-methoxy-N-methyl-4-(oxan-4-yl)-7-[3-(pyrrolidin-1-yl)propoxy]quinolin-2-amine]",< 0.1,–
CNc1nc(C2CCN(C(C)C)CC2)c2cc(OC)c(OC[C@@H]3CCN(C4CC4)C3)cc2n1 [Compound 526],0.1 to 1,–
COc1cc2c(C3CCN(C)CC3)nc(N3CCCC3)nc2cc1OCCCN1CCCC1 [Compound 527],0.1 to 1,–
COc1cc2c(C3CCN(C)CC3)nc(N3CCC(F)(F)CC3)nc2cc1OCCCN1CCCC1 [Compound 528],1 to 10,–
COc1cc2c(C3CCN(C)CC3)nc(NC3CCCC3)nc2cc1OCCCN1CCCC1 [Compound 529],0.1 to 1,–
CNc1nc(C2CCN(C(C)C)CC2)c2cc(OC)c(OCCCN3CCCC3)cc2n1 [Compound 530],1 to 10,–
CNc1nc(C2CCN(C)CC2)c2cc(OC)c(OCCCN3CC4CC4C3)cc2n1 (stereo not shown) [Compound 532],0.1 to 1,–
CNc1nc(C2CCN(CCO)CC2)c2cc(OC)c(OCCCN3CCCC3)cc2n1 [Compound 533],0.1 to 1,–
CNc1nc(C2CC(C)(C)NC(C)(C)C2)c2cc(OC)c(OCCCN3CCCC3)cc2n1 [Compound 534],> 10,–
CNc1cc(C2CCN(C)CC2)c2cc(OC)c(OCCCN3CCCC3)cc2n1 [Compound 535],< 0.1,–
COc1cc2c(C3CCN(C)CC3)cc(C)nc2cc1OCCCN1CCCC1 [Compound 536],0.1 to 1,–
"CCCCNc1nccc(NC)n1 [Compound 543, N^2-butyl-N^4-methylpyrimidine-2,4-diamine]",> 10,–
CNc1cc(C)nc(Nc2ccc(OC)c(OC[C@@H](O)CN3CCCC3)c2)n1 [Compound 1044],–,0.1 to 1
CNc1cc(C)nc(Nc2ccc(OC)c(OC[C@H](O)CN3CCCC3)c2)n1 [Compound 1045],–,0.1 to 1
CNc1ccnc(Nc2ccc(OC)c(OC[C@@H](O)CN3CCC3)c2)n1 [Compound 1046],–,1 to 10
CNc1cc(C2CCOCC2)c2cc(OC)c(OC[C@H](O)CN3CCC3)cc2n1 [Compound 1108],–,0.1 to 1
CNc1cc(C)nc(Nc2ccc(OC)c(CNCCNC3CCC3)c2)n1 [Compound 1109],–,1 to 10
CNc1cc(C)nc(Nc2cnc(OC)c(CNCCN3CCC3)c2)n1 [Compound 1110],–,0.1 to 1
CNc1cc(C2CCOCC2)c2cc(OC)c(CNCCN3CCCC3)cc2n1 [Compound 1111],–,0.1 to 1
CNc1cc(C)nc(Nc2ccc(OC)c(OC[C@H](O)CN(C)C)c2)n1 [Compound 1112],–,1 to 10
CCN(C)C[C@@H](O)COc1cc(Nc2nc(C)cc(NC)n2)ccc1OC [Compound 1113],–,1 to 10
CNc1cc(C)nc(Nc2ccc(C)c(C(=O)NCc3ccon3)c2)n1 [Compound 1114],–,> 10
